# According to ChEMBL document CHEMBL4346715, “Antibacterial activity study of 1,2,4-triazole derivatives” (Eur J Med Chem, 2019):
# What was measured:
# Candida albicans [1] = experiment: Antifungal activity against Candida albicans ATCC 50193 after 24 hrs by microdilution method; type: functional; conditions: ATCC 50193, 24 h
# Bacillus cereus = experiment: Antibacterial activity against Bacillus cereus ATCC 10876 after 24 hrs by microdilution method; type: functional; conditions: ATCC 10876, 24 h
# Proteus mirabilis = experiment: Antibacterial activity against Proteus mirabilis ATCC 35659 after 24 hrs by microdilution method; type: functional; conditions: ATCC 35659, 24 h
# Aspergillus brasiliensis = experiment: Antifungal activity against Aspergillus brasiliensis ATCC 16404 after 24 hrs by microdilution method; type: functional; conditions: ATCC 16404, 24 h
# Staphylococcus aureus [2] = experiment: Antibacterial activity against Staphylococcus aureus ATCC 25923 after 24 hrs by microdilution method; type: functional; conditions: ATCC 25923, 24 h
# Escherichia coli [3] = experiment: Antibacterial activity against Escherichia coli ATCC 25922 after 24 hrs by microdilution method; type: functional; conditions: ATCC 25922, 24 h
# Pseudomonas aeruginosa [4] = experiment: Antibacterial activity against Pseudomonas aeruginosa ATCC 27853 after 24 hrs by microdilution method; type: functional; conditions: ATCC 27853, 24 h
# Enterococcus faecalis = experiment: Antibacterial activity against Enterococcus faecalis ATCC 29212 after 24 hrs by microdilution method; type: functional; conditions: ATCC 29212, 24 h
# Escherichia coli [5] = experiment: Antibacterial activity against Escherichia coli incubated for 18 hrs post 30 mins pre-diffusion by disk diffusion method; type: functional
# Staphylococcus aureus [6] = experiment: Antibacterial activity against Staphylococcus aureus incubated for 18 hrs post 30 mins pre-diffusion by disk diffusion method; type: functional
# Aspergillus niger = experiment: Antifungal activity against Aspergillus niger; type: functional
# Candida albicans [7] = experiment: Antifungal activity against Candida albicans; type: functional
# Clostridium tetani = experiment: Antibacterial activity against Clostridium tetani; type: functional
# Bacillus subtilis = experiment: Antibacterial activity against Bacillus subtilis; type: functional
# Streptococcus pneumoniae = experiment: Antibacterial activity against Streptococcus pneumoniae; type: functional
# Escherichia coli [8] = experiment: Antibacterial activity against Escherichia coli; type: functional
# Staphylococcus aureus [9] = experiment: Antibacterial activity against Staphylococcus aureus; type: functional
# Pseudomonas aeruginosa [10] = experiment: Antibacterial activity against Pseudomonas aeruginosa; type: functional
# Pseudomonas aeruginosa [11] = experiment: Antibacterial activity against Pseudomonas aeruginosa ATCC 27853 after 24 hrs by broth microdilution method; type: functional; conditions: ATCC 27853, 24 h
# Staphylococcus aureus [12] = experiment: Antibacterial activity against Staphylococcus aureus ATCC 49444 after 24 hrs by broth microdilution method; type: functional; conditions: ATCC 49444, 24 h
# Escherichia coli [13] = experiment: Antibacterial activity against Escherichia coli after 24 hrs by broth microdilution method; type: functional
# Salmonella typhimurium = experiment: Antibacterial activity against Salmonella typhimurium ATCC 14028 after 24 hrs by broth microdilution method; type: functional, Salmonella enterica subsp. enterica serovar Typhimurium; conditions: Salmonella enterica, ATCC 14028, 24 h
# Listeria monocytogenes = experiment: Antibacterial activity against Listeria monocytogenes ATCC 35152 after 24 hrs by broth microdilution method; type: functional; conditions: ATCC 35152, 24 h
Compound,MIC (Escherichia coli [5]),MIC (Staphylococcus aureus [6]),MIC (Aspergillus niger),MIC (Candida albicans [7]),MIC (Bacillus subtilis),MIC (Escherichia coli [8]),MIC (Staphylococcus aureus [9]),MIC (Pseudomonas aeruginosa [10]),also measured
CCCCCCCCCCn1nnc(-c2n[nH]c(=S)n2N)c1-c1n[nH]c(=S)n1N,,,,,,,,,MIC (Candida albicans [1]): 1 to 128 µg/mL; MIC (Bacillus cereus): 1 to 128 µg/mL; MIC (Proteus mirabilis): 1 to 128 µg/mL; MIC (Aspergillus brasiliensis): 1 to 128 µg/mL; MIC (Staphylococcus aureus [2]): 1 to 128 µg/mL; MIC (Escherichia coli [3]): 1 to 128 µg/mL; MIC (Pseudomonas aeruginosa [4]): 1 to 128 µg/mL; MIC (Enterococcus faecalis): 1 to 128 µg/mL
CCCCCCCCCCCCn1nnc(-c2n[nH]c(=S)n2N)c1-c1n[nH]c(=S)n1N,,,,,,,,,MIC (Candida albicans [1]): 1 to 128 µg/mL; MIC (Bacillus cereus): 1 to 128 µg/mL; MIC (Proteus mirabilis): 1 to 128 µg/mL; MIC (Aspergillus brasiliensis): 1 to 128 µg/mL; MIC (Staphylococcus aureus [2]): 1 to 128 µg/mL; MIC (Escherichia coli [3]): 1 to 128 µg/mL; MIC (Pseudomonas aeruginosa [4]): 1 to 128 µg/mL; MIC (Enterococcus faecalis): 1 to 128 µg/mL
CSc1nccc(Sc2nnc(-c3cc(C(F)(F)F)cc(C(F)(F)F)c3)[nH]2)n1,1.6 to 250 µg/mL,1.6 to 250 µg/mL,,,,,,,
CSc1nc(Cl)cc(Sc2nnc(-c3ccc(C(F)(F)F)cc3)[nH]2)n1,1.6 to 250 µg/mL,1.6 to 250 µg/mL,,,,,,,
FC(F)(F)c1ccc(-c2nnc(Sc3cc(Cl)nc(Sc4ccccc4)n3)[nH]2)cc1,1.6 to 250 µg/mL,1.6 to 250 µg/mL,,,,,,,
Brc1ccccc1-c1nnc2sc(-c3ccccc3)nn12,,,6.25 µg/mL,3.12 µg/mL,,,,,
Cc1cc(C)cc(-c2nnc(Sc3cc(Cl)ncn3)[nH]2)c1,1.6 to 250 µg/mL,1.6 to 250 µg/mL,,,,,,,
COC1=CC(=O)C[C@@H](C)[C@]12Oc1c(Cl)c(OC)cc(OC)c1C2=O [GRISEOFULVIN],,,,,100 to 500 µg/mL,100 to 500 µg/mL,100 to 500 µg/mL,,MIC (Clostridium tetani): 100 to 500 µg/mL; MIC (Streptococcus pneumoniae): 100 to 500 µg/mL
FC(F)(F)c1cccc(-c2nnc(Sc3cc(Cl)nc(Sc4ccccc4)n3)[nH]2)c1,1.6 to 250 µg/mL,1.6 to 250 µg/mL,,,,,,,
Sc1nnc(-c2ccncc2)n1/N=C/c1ccccc1,,,10.2 to 162 µg/mL,10.2 to 162 µg/mL,10.2 to 162 µg/mL,10.2 to 162 µg/mL,14.1 to 17.2 µg/mL,14.1 to 17.2 µg/mL,
COc1cc(-c2nnc(Sc3cc(Cl)nc(Sc4ccccc4)n3)[nH]2)ccc1O,1.6 to 250 µg/mL,1.6 to 250 µg/mL,,,,,,,
Cc1nc(-c2ccccc2)sc1-c1nnc(S)n1/N=C/c1ccc(Cl)cc1Cl,,,,,,,,,MIC (Pseudomonas aeruginosa [11]): 1.95 to 62.5 µg/mL; MIC (Staphylococcus aureus [12]): 1.95 to 62.5 µg/mL; MIC (Escherichia coli [13]): 1.95 to 62.5 µg/mL; MIC (Salmonella typhimurium): 1.95 to 62.5 µg/mL; MIC (Listeria monocytogenes): 1.95 to 62.5 µg/mL
CC/C=N/n1c(S)nnc1-c1ccncc1,,,10.2 to 162 µg/mL,10.2 to 162 µg/mL,10.2 to 162 µg/mL,10.2 to 162 µg/mL,10.2 to 162 µg/mL,10.2 to 162 µg/mL,
COc1ccc(/C=N/n2c(S)nnc2-c2ccncc2)cc1,,,10.2 to 162 µg/mL,10.2 to 162 µg/mL,10.2 to 162 µg/mL,10.2 to 162 µg/mL,10.2 to 162 µg/mL,10.2 to 162 µg/mL,
Sc1nnc(-c2ccncc2)n1/N=C/c1ccc(Br)cc1,,,10.2 to 162 µg/mL,10.2 to 162 µg/mL,10.2 to 162 µg/mL,10.2 to 162 µg/mL,10.2 to 162 µg/mL,10.2 to 162 µg/mL,
NYSTATIN,,,,,100 to 500 µg/mL,100 to 500 µg/mL,100 to 500 µg/mL,,MIC (Clostridium tetani): 100 to 500 µg/mL; MIC (Streptococcus pneumoniae): 100 to 500 µg/mL
Cc1nc(-c2ccccc2)sc1-c1nnc(S)n1/N=C/c1ccc(F)cc1,,,,,,,,,MIC (Pseudomonas aeruginosa [11]): 1.95 to 62.5 µg/mL; MIC (Staphylococcus aureus [12]): 1.95 to 62.5 µg/mL; MIC (Escherichia coli [13]): 1.95 to 62.5 µg/mL; MIC (Salmonella typhimurium): 1.95 to 62.5 µg/mL; MIC (Listeria monocytogenes): 1.95 to 62.5 µg/mL
Cc1nc(-c2ccccc2)sc1-c1nnc(S)n1/N=C/c1cccc([N+](=O)[O-])c1,,,,,,,,,MIC (Pseudomonas aeruginosa [11]): 1.95 to 62.5 µg/mL; MIC (Staphylococcus aureus [12]): 1.95 to 62.5 µg/mL; MIC (Escherichia coli [13]): 1.95 to 62.5 µg/mL; MIC (Salmonella typhimurium): 1.95 to 62.5 µg/mL; MIC (Listeria monocytogenes): 1.95 to 62.5 µg/mL
Cc1nn(-c2ccccc2)c(-n2cncn2)c1-c1cc(-c2ccc(O)cc2)nc2nc3ccccc3n12,,,,,62.5 to 250 µg/mL,62.5 to 250 µg/mL,62.5 to 250 µg/mL,,MIC (Clostridium tetani): 62.5 to 250 µg/mL; MIC (Streptococcus pneumoniae): 62.5 to 250 µg/mL
Cc1nn(-c2ccccc2)c(-n2cncn2)c1-c1cc(-c2ccc(-c3cccs3)cc2)nc2nc3ccccc3n12,,,,,62.5 to 250 µg/mL,62.5 to 250 µg/mL,62.5 to 250 µg/mL,,MIC (Clostridium tetani): 62.5 to 250 µg/mL; MIC (Streptococcus pneumoniae): 62.5 to 250 µg/mL
CCCCCSc1nc(Cl)cc(Sc2nnc(-c3cc(C(F)(F)F)cc(C(F)(F)F)c3)[nH]2)n1,1.6 to 250 µg/mL,1.6 to 250 µg/mL,,,,,,,
Cc1ccc(/C=N/n2c(S)nnc2-c2ccncc2)cc1,,,10.2 to 162 µg/mL,10.2 to 162 µg/mL,10.2 to 162 µg/mL,10.2 to 162 µg/mL,10.2 to 162 µg/mL,10.2 to 162 µg/mL,
CCC/C=N/n1c(S)nnc1-c1ccncc1,,,10.2 to 162 µg/mL,10.2 to 162 µg/mL,10.2 to 162 µg/mL,10.2 to 162 µg/mL,10.2 to 162 µg/mL,10.2 to 162 µg/mL,
O=[N+]([O-])c1ccc(/C=N/n2c(S)nnc2-c2ccncc2)cc1,,,10.2 to 162 µg/mL,10.2 to 162 µg/mL,10.2 to 162 µg/mL,10.2 to 162 µg/mL,10.2 to 162 µg/mL,10.2 to 162 µg/mL,
C=CC/C=N/n1c(S)nnc1-c1ccncc1,,,10.2 to 162 µg/mL,10.2 to 162 µg/mL,10.2 to 162 µg/mL,10.2 to 162 µg/mL,10.2 to 162 µg/mL,10.2 to 162 µg/mL,
OCCCCSc1nc(Cl)cc(Sc2nnc(-c3cc(C(F)(F)F)cc(C(F)(F)F)c3)[nH]2)n1,1.6 to 250 µg/mL,1.6 to 250 µg/mL,,,,,,,
